Reference: PubChem BioAssay (NCI)
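Cells were grown in 96-well plates and exposed to each compound for 48 hours at five concentrations; endpoints were interpolated linearly between bracketing concentrations, or set to the highest concentration if not reached. GI50 is the concentration that inhibits growth by half. TGI denotes the concentration required for complete inhibition of growth.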

Columns and labels:
Test in all cases: NCI-60 cell line screen, 48 h
786-0 renal = test system: 786-0 renal
A549 NSCLC = test system: A549 NSCLC
ACHN renal = test system: ACHN renal
BT-549 breast = test system: BT-549 breast
CAKI-1 renal = test system: CAKI-1 renal
CCRF-CEM leukemia = test system: CCRF-CEM leukemia
COLO 205 colon = test system: COLO 205 colon
EKVX NSCLC = test system: EKVX NSCLC
HCC-2998 colon = test system: HCC-2998 colon
HCT-116 colon = test system: HCT-116 colon
HCT-15 colon = test system: HCT-15 colon
HL-60(TB) leukemia = test system: HL-60(TB) leukemia
HOP-62 NSCLC = test system: HOP-62 NSCLC
HOP-92 NSCLC = test system: HOP-92 NSCLC
HS 578T breast = test system: HS 578T breast
HT29 colon = test system: HT29 colon
IGROV1 ovarian = test system: IGROV1 ovarian
K-562 leukemia = test system: K-562 leukemia
KM12 colon = test system: KM12 colon
LOX IMVI melanoma = test system: LOX IMVI melanoma
M14 melanoma = test system: M14 melanoma
MCF7 breast = test system: MCF7 breast
MDA-MB-231 breast = test system: MDA-MB-231 breast
MDA-MB-435 = test system: MDA-MB-435
MOLT-4 leukemia = test system: MOLT-4 leukemia
NCI-H226 lung = test system: NCI-H226 lung
NCI-H23 lung = test system: NCI-H23 lung
NCI-H460 lung = test system: NCI-H460 lung
NCI-H522 lung = test system: NCI-H522 lung
NCI/ADR-RES ovarian = test system: NCI/ADR-RES ovarian
OVCAR-3 ovarian = test system: OVCAR-3 ovarian
OVCAR-5 ovarian = test system: OVCAR-5 ovarian
OVCAR-8 ovarian = test system: OVCAR-8 ovarian
PC-3 prostate = test system: PC-3 prostate
RPMI-8226 leukemia = test system: RPMI-8226 leukemia
RXF 393 renal = test system: RXF 393 renal
SF-268 CNS = test system: SF-268 CNS
SF-295 CNS = test system: SF-295 CNS
SK-MEL-2 melanoma = test system: SK-MEL-2 melanoma
SK-MEL-28 melanoma = test system: SK-MEL-28 melanoma
SK-MEL-5 melanoma = test system: SK-MEL-5 melanoma
SN12C renal = test system: SN12C renal
SNB-19 CNS = test system: SNB-19 CNS
SW-620 colon = test system: SW-620 colon
T-47D breast = test system: T-47D breast
TK-10 renal = test system: TK-10 renal
U251 CNS = test system: U251 CNS
UACC-257 melanoma = test system: UACC-257 melanoma
UACC-62 melanoma = test system: UACC-62 melanoma
UO-31 renal = test system: UO-31 renal

In the case of `O=C(O)c1ccccc1NCn1nc(-c2ccccc2O)oc1=S`, the GI50 (786-0 renal) is reported as 35.4 µM, the TGI (786-0 renal) is reported as > 100 µM and the GI50 (A549 NSCLC) is reported as 51 µM. The TGI (A549 NSCLC) was > 100 µM, the GI50 (ACHN renal) was 26.9 µM and the TGI (ACHN renal) was 82.8 µM. For the same compound, the GI50 (BT-549 breast) was 73.8 µM, the TGI (BT-549 breast) was > 100 µM and the GI50 (CAKI-1 renal) was > 100 µM. The TGI (CAKI-1 renal) was > 100 µM, the GI50 (CCRF-CEM leukemia) was 10.6 µM and the TGI (CCRF-CEM leukemia) was 36.4 µM. For the same compound, the GI50 (COLO 205 colon) was 49.6 µM, the TGI (COLO 205 colon) was > 100 µM and the GI50 (EKVX NSCLC) was > 100 µM. The TGI (EKVX NSCLC) was > 100 µM, the GI50 (HCC-2998 colon) was 33.7 µM and the TGI (HCC-2998 colon) was 86.7 µM. The GI50 (HCT-116 colon) was 26 µM, the TGI (HCT-116 colon) was 54.1 µM and the GI50 (HCT-15 colon) was 24.6 µM. For the same compound, the TGI (HCT-15 colon) was 65.3 µM, the GI50 (HL-60(TB) leukemia) was 64.9 µM and the TGI (HL-60(TB) leukemia) was > 100 µM. The GI50 (HOP-62 NSCLC) was 39 µM, the TGI (HOP-62 NSCLC) was > 100 µM and the GI50 (HOP-92 NSCLC) was 30.4 µM. For the same compound, the TGI (HOP-92 NSCLC) was 94.6 µM, the GI50 (HS 578T breast) was > 100 µM and the TGI (HS 578T breast) was > 100 µM. The GI50 (HT29 colon) was 34.9 µM, the TGI (HT29 colon) was > 100 µM and the GI50 (IGROV1 ovarian) was > 100 µM. For the same compound, the TGI (IGROV1 ovarian) was > 100 µM, the GI50 (K-562 leukemia) was 70.9 µM and the TGI (K-562 leukemia) was > 100 µM. For the same compound, the GI50 (KM12 colon) was > 100 µM, the TGI (KM12 colon) was > 100 µM and the GI50 (LOX IMVI melanoma) was 19.4 µM. The TGI (LOX IMVI melanoma) was 38.9 µM, the GI50 (M14 melanoma) was 46.3 µM and the TGI (M14 melanoma) was > 100 µM. For the same compound, the GI50 (MCF7 breast) was 46.7 µM, the TGI (MCF7 breast) was > 100 µM and the GI50 (MDA-MB-231 breast) was 16.8 µM. For the same compound, the TGI (MDA-MB-231 breast) was 47.8 µM, the GI50 (MDA-MB-435) was > 100 µM and the TGI (MDA-MB-435) was > 100 µM. It also gave a GI50 (MOLT-4 leukemia) of 9.98 µM, a TGI (MOLT-4 leukemia) of 30 µM and a GI50 (NCI-H226 lung) of 86.6 µM. For the same compound, the TGI (NCI-H226 lung) was > 100 µM, the GI50 (NCI-H23 lung) was 40.1 µM and the TGI (NCI-H23 lung) was > 100 µM. For the same compound, the GI50 (NCI-H460 lung) was 39.5 µM, the TGI (NCI-H460 lung) was > 100 µM and the GI50 (NCI-H522 lung) was > 100 µM. For the same compound, the TGI (NCI-H522 lung) was > 100 µM, the GI50 (NCI/ADR-RES ovarian) was 54 µM and the TGI (NCI/ADR-RES ovarian) was > 100 µM. For the same compound, the GI50 (OVCAR-3 ovarian) was > 100 µM, the TGI (OVCAR-3 ovarian) was > 100 µM and the GI50 (OVCAR-5 ovarian) was > 100 µM. For the same compound, the TGI (OVCAR-5 ovarian) was > 100 µM, the GI50 (OVCAR-8 ovarian) was > 100 µM and the TGI (OVCAR-8 ovarian) was > 100 µM. For the same compound, the GI50 (PC-3 prostate) was 43.6 µM, the TGI (PC-3 prostate) was > 100 µM and the GI50 (RPMI-8226 leukemia) was 4.14 µM. The TGI (RPMI-8226 leukemia) was 24.5 µM, the GI50 (RXF 393 renal) was 68.9 µM and the TGI (RXF 393 renal) was > 100 µM. The GI50 (SF-268 CNS) was 80.9 µM, the TGI (SF-268 CNS) was > 100 µM and the GI50 (SF-295 CNS) was > 100 µM. For the same compound, the TGI (SF-295 CNS) was > 100 µM, the GI50 (SK-MEL-2 melanoma) was > 100 µM and the TGI (SK-MEL-2 melanoma) was > 100 µM. For the same compound, the GI50 (SK-MEL-28 melanoma) was > 100 µM, the TGI (SK-MEL-28 melanoma) was > 100 µM and the GI50 (SK-MEL-5 melanoma) was 73.4 µM. For the same compound, the TGI (SK-MEL-5 melanoma) was > 100 µM, the GI50 (SN12C renal) was 56.5 µM and the TGI (SN12C renal) was > 100 µM. For the same compound, the GI50 (SNB-19 CNS) was > 100 µM, the TGI (SNB-19 CNS) was > 100 µM and the GI50 (SW-620 colon) was 33.8 µM. For the same compound, the TGI (SW-620 colon) was > 100 µM, the GI50 (T-47D breast) was 68.7 µM and the TGI (T-47D breast) was > 100 µM. For the same compound, the GI50 (TK-10 renal) was > 100 µM, the TGI (TK-10 renal) was > 100 µM and the GI50 (U251 CNS) was 48.3 µM. For the same compound, the TGI (U251 CNS) was > 100 µM, the GI50 (UACC-257 melanoma) was > 100 µM and the TGI (UACC-257 melanoma) was > 100 µM. The GI50 (UACC-62 melanoma) was 33.7 µM, the TGI (UACC-62 melanoma) was 92.3 µM and the GI50 (UO-31 renal) was > 100 µM. The TGI (UO-31 renal) was > 100 µM.
